Measurements from patent publication US20220202957A1, “LONG-LASTING ANALGESIA VIA TARGETED IN VIVO EPIGENETIC REPRESSION” (The Regents of the University of California, priority 2019, published 2022).

What was measured:
[1] = system: carrageenan-induced model of inflammatory pain; assay: Carrageenan-induced inflammatory pain model, thermal paw withdrawal latency (Hargreaves test); format: in vivo, mouse; conditions: gabapentin 100 mg/kg i.p.
Description: Animals Experiments. All animal procedures were performed in accordance with protocols approved by the Institutional Animal Care and Use Committee (IACUC) of the University of California, San Diego. All mice were acquired from Jackson Laboratory. Two-month-old adult male C57BL/6 mice (25-30 g) were housed with food and water provided ad libitum, under a 12 h light/dark cycle with up to 5 mice per cage. All behavioral tests were performed during the light cycle period.
Intrathecal AAV Injections. Anesthesia was induced with 2.5% isoflurane delivered in equal parts O2 and room air in a closed chamber until a loss of the righting reflex was observed. The lower back of mice was shaven and swabbed with 70% ethanol. Mice were then intrathecally (i.t.) injected using a Hamilton syringe and 30G needle as previously described 104 between vertebrae L4 and L5 with 5 μL of AAV for a total of 1E+12 vg/mouse. A tail flick was considered indicative of appropriate needle placement. […]
Pain Models. […] Paw thickness was measured with a caliper before and 4 h after carrageenan/saline injections as an index of edema/inflammation. […]
Thermal Withdrawal Latency (Hargreaves Test): To determine the acute nociceptive thermal threshold, the Hargreaves' test was conducted using a plantar test device (Ugo Basile, Italy) 108. […] Paw withdrawal latencies were measured with a cutoff time of 30 seconds. […]

NaV1.7 = assay: In vivo Nav1.7 repression in mice DRG (L4-L6) by qPCR after intrathecal AAV9; set-up: species or system mouse; conditions: gabapentin benchmarking experiment; 24 h after carrageenan; vs AAV9-mCherry
Description: (§1) Intrathecal AAV Injections. Anesthesia was induced with 2.5% isoflurane delivered in equal parts O2 and room air in a closed chamber until a loss of the righting reflex was observed. The lower back of mice was shaven and swabbed with 70% ethanol. Mice were then intrathecally (i.t.) injected using a Hamilton syringe and 30G needle as previously described 104 between vertebrae L4 and L5 with 5 μL of AAV for a total of 1E+12 vg/mouse. A tail flick was considered indicative of appropriate needle placement. Following injection, all mice resumed motor activity consistent with that observed prior to i.t. injection.
Tissue collection. […]
Gene Expression Analysis and qPCR. […] Relative mRNA expression was normalized to GAPDH levels and fold change was calculated using the comparative CT (AACT) method and normalized to GAPDH. Mean fold change and SD were calculated using Microsoft Excel.
Having established in vitro Nav1.7 repression, testing the effectiveness of the best ZFP-KRAB and KRAB-dCas9 constructs from the in vitro screens (Zinc-Finger-4-KRAB and KRAB-dCas9-dual-gRNA) in a carrageenan-induced model of inflammatory pain was performed. […] After 21 days, thermal pain sensitivity was measured to establish a baseline response threshold. […]

[2] = system: paclitaxel-induced neuropathy; assay: Paclitaxel-induced neuropathic pain model, tactile allodynia (von Frey filaments); format: in vivo, mouse; conditions: 21 days after i.t. injection, 24 h after last paclitaxel (4 x 8 mg/kg i.p.); gabapentin 100 mg/kg i.p.
Description: as §1
Paclitaxel-induced neuropathy: Paclitaxel (Tocris Biosciences, 1097) was dissolved in a mixture of 1:1:18 [1 volume ethanol/1 volume Cremophor EL (Millipore, 238470)/18 volumes of sterilized 0.9% (W/V) NaCl solution]. […]
Tactile allodynia: For the BzATP pain model, tactile thresholds (allodynia) were assessed 30 minutes, 1, 2, 3, 6, 24 hours after the BzATP injection. For the Paclitaxel model, tactile thresholds (allodynia) were assessed 24 hours and 29 days after the last Paclitaxel injection. […] The 50% probability of withdrawal threshold was assessed using von Frey filaments (Seemes Weinstein von Frey anesthesiometer; Stoelting Co., Wood Dale, Ill., USA) ranging from 2.44 to 4.31 (0.04-2.00 g) in an up-down method, as previously described 107. […]

Nav1.7 transcript = assay: In vitro Nav1.7 repression by qPCR in transfected Neuro2a cells; format: cell-based, mouse; conditions: qPCR relative to GAPDH, KRAB-dCas9 constructs compared to the non-targeting gRNA control
Description: Mammalian Cell Culture. Neuro2a cells were grown in EMEM supplemented with 10% fetal bovine serum (FBS) and 1% Antibiotic-Antimycotic (Thermo Fisher Scientific) in an incubator at 37° C. and 5% CO2 atmosphere.
Lipid-Mediated Cell Transfections. One day prior to transfection, Neuro2a cells were seeded in a 24-well plate at a cell density of 1 or 2E+5 cells per well. […] of each plasmid was added to 25 μL of Opti-MEM medium, followed by addition of 25 μL of Opti-MEM containing 2 μL of Lipofectamine 2000. The mixture was incubated at room temperature for 15 min. The entire solution was then added to the cells in a 24-well plate and mixed by gently swirling the plate. Media was changed after 24 h, and the plate was incubated at 37° C. for 72 h in a 5% CO2 incubator. Cells were harvested, spun down, and frozen at […].
Gene Expression Analysis and qPCR. RNA from Neuro2a cells was extracted using Rneasy Kit (QIAGEN; 74104) and from DRG using Rneasy Micro Kit (QIAGEN; 74004). cDNA was synthesized from RNA using Protoscript II Reverse Transcriptase Kit (NEB; E6560L). […] Relative mRNA expression was normalized to GAPDH levels and fold change was calculated using the comparative CT (AACT) method and normalized to GAPDH. Mean fold change and SD were calculated using Microsoft Excel. […]

Compound | PWL of carrageenan-injected paws at each time point vs AAV9-mCherry control (two-way ANOVA) ([1]; 30 min, 1, 2, 4, 24 h after carrageenan, AAV9 1E+12 vg/mouse i.t.) | PWL (AUC of thermal hyperalgesia) in carrageenan-injected paws vs AAV9-mCherry control ([1]; gabapentin benchmarking experiment, day 21) | repression of Nav1.7 in DRG (L4-L6) by qPCR, significance (NaV1.7) | 50% tactile withdrawal threshold / tactile allodynia (von Frey) [2] | repression of the Nav1.7 transcript (Nav1.7 transcript)
NCC1(CC(=O)O)CCCCC1 [gabapentin] | at the 30 minute, 1 hour, and four hour time points, but not the 24 hour time point | significant increase in PWL | significant repression of Nav1.7 | increased withdrawal thresholds | 
gRNA-2: guide RNA spacer GCAGGTGCACTCACCGGGT (SEQ ID NO: 130), used with KRAB-dCas9 (listed as DNA, chemistry not given here) |  |  |  |  | 56%
